For 1 molecule, IC50 results are on record in patent US7718669B2, “Triazolopyridine derivatives as inhibitors of lipases and phospholipases” (Sanofi-Aventis, priority 2005, dated 2010).

The target of this experiment is T1, endothelial lipase (EL) (Homo sapiens, UniProt Q9Y5X9).
T1 construct: made in house; host or cells: recombinant CHO or HEK293 cell lines; concentrated conditioned medium
T1 sequence (Q9Y5X9 21-500): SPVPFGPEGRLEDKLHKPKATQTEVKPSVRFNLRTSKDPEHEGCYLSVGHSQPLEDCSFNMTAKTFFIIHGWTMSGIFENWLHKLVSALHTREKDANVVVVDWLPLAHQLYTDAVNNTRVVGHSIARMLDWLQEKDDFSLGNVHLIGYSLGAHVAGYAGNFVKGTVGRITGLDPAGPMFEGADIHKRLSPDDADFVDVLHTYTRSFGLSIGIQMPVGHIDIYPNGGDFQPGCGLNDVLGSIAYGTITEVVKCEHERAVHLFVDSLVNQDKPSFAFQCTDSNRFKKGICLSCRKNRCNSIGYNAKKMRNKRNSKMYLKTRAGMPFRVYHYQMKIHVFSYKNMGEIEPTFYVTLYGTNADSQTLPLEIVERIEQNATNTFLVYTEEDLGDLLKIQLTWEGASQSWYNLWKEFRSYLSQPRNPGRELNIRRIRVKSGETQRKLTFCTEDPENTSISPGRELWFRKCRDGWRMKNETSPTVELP
Put plainly: EL inhibition assay. In kind it is biochemical. The note with it: EL from conditioned medium of recombinant cell lines (CHO, HEK293); Bodipy phospholipid substrate; 37° C. for 60 minutes. The text has this:
EL is released as secretory protein in high concentration into cell culture medium (conditioned medium) by recombinant cell lines (CHO, HEK293). This is employed as enzyme solution after concentration.
The phospholipase-specific substrate 1,2-bis(4,4-difluoro-5,7-dimethyl-4-bora-3a,4a-diaza-s-indacene-3-undecanoyl)-sn-glycero-3-phosphocholine, (manufacturer Molecular Probes) is used to characterize the enzymatic activity of endothelial lipase and the effect of inhibitors. Hydrolysis of the A1 ester linkage of this phospholipid by the enzyme liberates the fluorescent dye Bodipy which can be detected after separation by thin-layer chromatography on an HPTLC plate (silica gel 60, Merck) or directly in the reaction vessel by measuring the fluorescence. The substrate solution is prepared by taking up 100 μg of 1,2-bis(4,4-difluoro-5,7-dimethyl-4-bora-3a,4a-diaza-s-indacene-3-undecanoyl)-sn-glycero-3-phospho-choline (manufacturer Molecular Probes), 2.4 mg of tripalmitin (Sigma) and 7.9 mg of DOP-choline (1,2-dioleoyl-sn-glycero-3-phosphocholine) in 393 μl of chloroform and then transferring 157 μl into a fresh reaction vessel. After evaporation of the solvent, the lipid mixture is dissolved in 4 ml of 200 mM TRIS-HCl, 150 mM sodium chloride, pH=7.4, by sonication twice. The subsequent enzymic reaction takes place at 37° C. for 60 minutes. For this purpose, 45 μl of the substrate solution are incubated with 1 μl of inhibitor of appropriate concentration (dissolved in DMSO, pure DMSO solution is used as control) and 5 μl of enzyme solution (conditioned medium). Then 3 μl of the assay mixture are loaded onto an HPTLC plate (silica gel 60, Merck), and the liberated fluorescent dye is separated for detection with an eluent (diethyl ether:petroleum benzene:acetic acid [78:22:1]). After evaporation of the eluent, the plate is read in a fluorescence scanner. An increased release of the fluorescent dye in the uninhibited reaction is to be observed as a measure of the enzymic activity.
The enzymatic activity is reduced as a function of the inhibitor concentration used, and the inhibitor concentration at which a half-maximum enzymic activity is observed is called IC50.

With `CCCCCCNC(=O)n1nnc2nc(Cl)ccc21` [Example 56], the IC50 amounted to 0.04 µM.
